The target in assay [1] is T1, 5-hydroxytryptamine receptor 1A (Homo sapiens, UniProt P08908).
T1 sequence (P08908 whole entry): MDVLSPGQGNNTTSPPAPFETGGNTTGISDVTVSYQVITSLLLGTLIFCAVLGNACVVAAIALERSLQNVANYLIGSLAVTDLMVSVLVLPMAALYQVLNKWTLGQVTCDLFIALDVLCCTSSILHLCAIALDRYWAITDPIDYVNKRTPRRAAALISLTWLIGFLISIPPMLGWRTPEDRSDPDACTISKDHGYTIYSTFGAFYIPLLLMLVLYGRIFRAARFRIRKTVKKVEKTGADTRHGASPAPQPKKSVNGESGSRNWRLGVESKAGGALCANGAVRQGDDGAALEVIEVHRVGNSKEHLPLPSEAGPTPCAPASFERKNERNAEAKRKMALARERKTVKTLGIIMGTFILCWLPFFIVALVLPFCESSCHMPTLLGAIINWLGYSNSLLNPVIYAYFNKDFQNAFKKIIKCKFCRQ

Assay [2] has as its target 5-hydroxytryptamine receptor 2B (Homo sapiens, UniProt P41595).
For assay [3], the target named is Rod cGMP-specific 3',5'-cyclic phosphodiesterase subunit alpha (Homo sapiens, UniProt P16499). It is filed as functional.
Sequence of Rod cGMP-specific 3',5'-cyclic phosphodiesterase subunit alpha (P16499 whole entry): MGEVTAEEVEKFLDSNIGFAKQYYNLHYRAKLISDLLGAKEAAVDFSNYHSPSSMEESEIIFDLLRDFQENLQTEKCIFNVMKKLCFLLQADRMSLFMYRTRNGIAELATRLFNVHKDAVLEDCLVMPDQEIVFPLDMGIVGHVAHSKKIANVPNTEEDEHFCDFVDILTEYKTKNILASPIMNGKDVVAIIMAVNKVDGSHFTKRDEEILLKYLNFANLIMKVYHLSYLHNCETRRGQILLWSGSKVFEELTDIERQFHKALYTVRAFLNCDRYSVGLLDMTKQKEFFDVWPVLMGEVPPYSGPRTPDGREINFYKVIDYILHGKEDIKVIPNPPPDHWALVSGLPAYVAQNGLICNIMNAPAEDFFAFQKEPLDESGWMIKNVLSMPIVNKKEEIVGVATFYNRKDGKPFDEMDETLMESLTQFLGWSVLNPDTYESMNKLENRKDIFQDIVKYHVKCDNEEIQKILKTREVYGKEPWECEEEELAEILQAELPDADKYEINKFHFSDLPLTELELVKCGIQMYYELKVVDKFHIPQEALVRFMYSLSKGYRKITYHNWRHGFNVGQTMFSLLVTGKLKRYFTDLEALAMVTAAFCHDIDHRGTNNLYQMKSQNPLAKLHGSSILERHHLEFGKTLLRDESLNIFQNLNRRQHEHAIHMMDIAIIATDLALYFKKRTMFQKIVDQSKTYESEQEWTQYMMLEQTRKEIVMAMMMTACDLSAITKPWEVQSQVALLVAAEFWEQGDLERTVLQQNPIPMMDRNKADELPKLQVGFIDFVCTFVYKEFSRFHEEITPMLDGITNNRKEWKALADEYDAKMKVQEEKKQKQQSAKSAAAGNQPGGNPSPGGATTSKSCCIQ
Assay [4] has as its target T2, Retinoic acid receptor alpha (Homo sapiens, UniProt P10276).
T2 sequence (P10276 whole entry): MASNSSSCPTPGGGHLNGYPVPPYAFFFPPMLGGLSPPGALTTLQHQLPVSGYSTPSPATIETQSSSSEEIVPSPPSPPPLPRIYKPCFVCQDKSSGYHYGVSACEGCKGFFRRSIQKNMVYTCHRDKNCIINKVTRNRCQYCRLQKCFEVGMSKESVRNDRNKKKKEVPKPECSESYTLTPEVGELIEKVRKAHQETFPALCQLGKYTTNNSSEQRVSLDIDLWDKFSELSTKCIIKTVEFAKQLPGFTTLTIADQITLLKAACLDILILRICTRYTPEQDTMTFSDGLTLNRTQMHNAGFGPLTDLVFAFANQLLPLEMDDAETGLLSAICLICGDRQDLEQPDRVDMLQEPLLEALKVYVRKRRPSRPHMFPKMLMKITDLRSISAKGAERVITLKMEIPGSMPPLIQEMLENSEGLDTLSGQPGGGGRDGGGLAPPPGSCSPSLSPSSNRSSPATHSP
It is filed as functional, cell-based.

The next assay concerns the target T3, Bile acid receptor (Homo sapiens, UniProt Q96RI1).
T3 sequence (Q96RI1 whole entry): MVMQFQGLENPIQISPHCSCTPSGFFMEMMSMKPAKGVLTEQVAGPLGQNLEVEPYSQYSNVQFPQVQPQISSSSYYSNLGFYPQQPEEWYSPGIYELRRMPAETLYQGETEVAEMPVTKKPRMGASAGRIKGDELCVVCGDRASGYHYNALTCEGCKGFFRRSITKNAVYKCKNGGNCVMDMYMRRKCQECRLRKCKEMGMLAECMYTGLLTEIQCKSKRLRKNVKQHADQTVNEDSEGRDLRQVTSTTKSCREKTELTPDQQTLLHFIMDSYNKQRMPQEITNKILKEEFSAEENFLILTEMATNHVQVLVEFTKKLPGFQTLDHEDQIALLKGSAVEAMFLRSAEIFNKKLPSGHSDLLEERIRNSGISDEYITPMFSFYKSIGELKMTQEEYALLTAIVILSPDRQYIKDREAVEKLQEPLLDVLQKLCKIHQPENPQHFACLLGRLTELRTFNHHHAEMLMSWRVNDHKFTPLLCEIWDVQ
It is filed as functional.

The target in assay [5] is T4, Retinoic acid receptor gamma (Homo sapiens, UniProt P13631).
T4 sequence (P13631 whole entry): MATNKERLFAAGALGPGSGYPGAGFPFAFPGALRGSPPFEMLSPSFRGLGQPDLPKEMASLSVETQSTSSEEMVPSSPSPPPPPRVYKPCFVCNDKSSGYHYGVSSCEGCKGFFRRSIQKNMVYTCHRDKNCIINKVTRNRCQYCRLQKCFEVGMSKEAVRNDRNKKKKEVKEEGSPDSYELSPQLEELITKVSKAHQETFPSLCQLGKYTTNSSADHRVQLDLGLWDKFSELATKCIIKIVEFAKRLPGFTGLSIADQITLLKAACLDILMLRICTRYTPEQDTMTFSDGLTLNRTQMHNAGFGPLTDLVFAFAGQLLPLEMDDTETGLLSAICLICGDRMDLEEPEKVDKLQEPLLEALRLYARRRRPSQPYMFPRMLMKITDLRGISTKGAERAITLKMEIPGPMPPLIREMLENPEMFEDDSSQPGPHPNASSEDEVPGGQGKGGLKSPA
It is filed as functional, cell-based.

Assay [6] addresses T5, Oxysterols receptor LXR-beta (Homo sapiens, UniProt P55055).
T5 sequence (P55055 whole entry): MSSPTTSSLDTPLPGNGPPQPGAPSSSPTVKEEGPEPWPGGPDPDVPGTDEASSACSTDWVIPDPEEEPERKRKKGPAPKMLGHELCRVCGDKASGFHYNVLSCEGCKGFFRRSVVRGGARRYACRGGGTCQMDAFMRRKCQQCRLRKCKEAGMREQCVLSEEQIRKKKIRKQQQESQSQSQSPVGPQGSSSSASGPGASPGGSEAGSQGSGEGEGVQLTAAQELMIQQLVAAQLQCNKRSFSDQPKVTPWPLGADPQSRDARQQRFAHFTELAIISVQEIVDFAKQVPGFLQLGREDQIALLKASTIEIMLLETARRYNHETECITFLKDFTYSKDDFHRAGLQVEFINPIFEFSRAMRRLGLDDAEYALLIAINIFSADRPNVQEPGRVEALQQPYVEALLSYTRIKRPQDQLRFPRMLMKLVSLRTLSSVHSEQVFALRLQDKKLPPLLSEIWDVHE
It is filed as functional.

Assay [7] addresses T6, Type-2 angiotensin II receptor (Homo sapiens, UniProt P50052).
T6 sequence (P50052 whole entry): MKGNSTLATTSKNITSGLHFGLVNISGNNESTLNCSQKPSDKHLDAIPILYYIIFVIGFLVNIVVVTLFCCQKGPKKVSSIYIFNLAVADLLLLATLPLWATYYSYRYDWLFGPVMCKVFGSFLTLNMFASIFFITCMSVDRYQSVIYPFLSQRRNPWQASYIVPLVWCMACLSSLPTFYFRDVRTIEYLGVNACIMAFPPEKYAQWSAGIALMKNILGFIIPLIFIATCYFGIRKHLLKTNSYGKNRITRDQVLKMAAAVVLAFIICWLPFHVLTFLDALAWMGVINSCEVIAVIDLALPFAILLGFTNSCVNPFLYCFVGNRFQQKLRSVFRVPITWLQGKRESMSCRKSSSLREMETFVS
Format: functional.

Molecules are shown by their SMILES. Bounds are passed on as bounds.
Further: assay procedure not described here.

Sequence of 5-hydroxytryptamine receptor 2B (P41595 whole entry): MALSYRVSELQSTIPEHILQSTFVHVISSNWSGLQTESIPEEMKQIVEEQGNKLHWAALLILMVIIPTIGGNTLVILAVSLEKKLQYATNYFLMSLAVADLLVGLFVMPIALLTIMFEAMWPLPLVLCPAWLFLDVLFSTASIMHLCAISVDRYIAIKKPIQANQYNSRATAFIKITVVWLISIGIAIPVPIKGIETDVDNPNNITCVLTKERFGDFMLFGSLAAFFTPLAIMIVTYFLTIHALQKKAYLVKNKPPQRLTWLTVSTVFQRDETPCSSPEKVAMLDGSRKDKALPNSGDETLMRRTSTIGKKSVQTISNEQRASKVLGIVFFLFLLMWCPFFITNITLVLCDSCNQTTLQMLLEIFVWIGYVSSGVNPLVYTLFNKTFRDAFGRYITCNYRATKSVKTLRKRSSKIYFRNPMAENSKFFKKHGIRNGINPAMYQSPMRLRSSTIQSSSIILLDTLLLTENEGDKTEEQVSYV

As a reminder, the AC50 is the concentration at which the activity in the assay is half-maximal. Turning to `CC(=O)Oc1ccccc1C(=O)O` [ASPIRIN], the AC50 in assay [1] was over 30 µM.
In assay [2], `CN(C)CCCC1(c2ccc(F)cc2)OCc2cc(C#N)ccc21` (stereo not given) [CITALOPRAM] yielded an AC50 of 0.3 µM. In other words, the sub-micromolar range.
In assay [3], `CCOC(=O)[C@H](CCc1ccccc1)N[C@@H](C)C(=O)N1Cc2ccccc2C[C@H]1C(=O)O` came in with a half-maximal activity concentration (AC50) of over 10 µM.
Turning to `CC(C)/N=c1\cc2n(-c3ccc(Cl)cc3)c3ccccc3nc-2cc1Nc1ccc(Cl)cc1` [CLOFAZIMINE], the half-maximal activity concentration (AC50) (in assay [4]; at Bile acid receptor; in assay [5]; in assay [6]) was over 30 µM each time.
Molecule `NCC1(CC(=O)O)CCCCC1` [GABAPENTIN] displayed an AC50 in assay [1] of over 30 µM.
Molecule `C[C@H](CS)C(=O)N1CCC[C@H]1C(=O)O` [CAPTOPRIL] showed an AC50 in assay [7] of over 100 µM.
For the molecule `Cc1ccc(C(C)C)c(O)c1` [THYMOL], the activity in assay [2] was half-maximal at 9.1 µM (AC50).

These data come from ChEMBL document CHEMBL5291721, “A preclinical secondary pharmacology resource illuminates target-adverse drug reaction associations of marketed drugs” (Nat Commun, 2023).
